Test results from US20230265151A1, “GIP/GLP1 CO-AGONIST COMPOUNDS” (priority 2020, published 2023).
Read-outs that look alike come from different tables or passages of the source.

Tests used:
Assay type in all cases: cell-based
[1] = target: T1, hGIPR (Homo sapiens, UniProt P48546); assay: Functional cAMP formation (HTRF) in HEK-293 clonal cells expressing hGIPR, 0.1% bovine casein, without or with 1.0% human serum albumin; conditions: for EC50: geometric mean
T1 construct: expressed in transfected cells
T1 sequence (P48546 22-466): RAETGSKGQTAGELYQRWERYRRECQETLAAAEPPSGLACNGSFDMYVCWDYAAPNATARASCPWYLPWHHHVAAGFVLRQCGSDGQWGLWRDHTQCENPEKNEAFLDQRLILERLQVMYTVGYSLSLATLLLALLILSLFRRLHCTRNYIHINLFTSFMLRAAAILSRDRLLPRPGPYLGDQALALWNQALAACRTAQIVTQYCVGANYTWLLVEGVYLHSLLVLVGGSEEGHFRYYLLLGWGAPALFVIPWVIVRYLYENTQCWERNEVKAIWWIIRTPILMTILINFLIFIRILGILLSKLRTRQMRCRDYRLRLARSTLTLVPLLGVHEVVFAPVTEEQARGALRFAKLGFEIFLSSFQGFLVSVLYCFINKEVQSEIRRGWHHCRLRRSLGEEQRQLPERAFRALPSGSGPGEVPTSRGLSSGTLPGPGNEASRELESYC
Procedure, shortened: (§1)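 Cells were stimulated with peptide for 30 min at 37° C, then lysed in buffer carrying cAMP-d2 and anti-cAMP Eu3+-cryptate for a competitive HTRF read after at least 60 min at room temperature. The 665/620 nm ratio was converted to nM cAMP against a standard curve.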

[2] = target: T2, hGCGR (Homo sapiens, UniProt P47871); assay: Functional cAMP formation (HTRF) in HEK-293 clonal cells expressing hGCGR, 0.1% bovine casein, without or with 1.0% human serum albumin; conditions: geometric mean
T2 construct: expressed in transfected cells
T2 sequence (P47871 26-477): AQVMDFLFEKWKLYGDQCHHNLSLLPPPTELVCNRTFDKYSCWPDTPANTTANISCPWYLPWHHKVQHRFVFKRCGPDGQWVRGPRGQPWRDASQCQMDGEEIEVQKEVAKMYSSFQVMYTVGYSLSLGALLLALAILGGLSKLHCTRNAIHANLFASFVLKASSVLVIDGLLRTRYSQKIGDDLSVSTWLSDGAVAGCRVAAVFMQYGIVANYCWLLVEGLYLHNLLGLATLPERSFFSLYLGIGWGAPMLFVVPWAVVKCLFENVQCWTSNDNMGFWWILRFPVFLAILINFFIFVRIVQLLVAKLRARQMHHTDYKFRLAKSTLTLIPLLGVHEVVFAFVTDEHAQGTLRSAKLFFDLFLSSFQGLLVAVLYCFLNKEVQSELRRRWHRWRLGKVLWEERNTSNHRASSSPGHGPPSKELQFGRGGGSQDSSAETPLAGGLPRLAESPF
Procedure, shortened: as §1

[3] = target: hGLP-1R (Homo sapiens, UniProt P43220); assay: Functional cAMP formation (HTRF) in HEK-293 clonal cells expressing hGLP-1R, 0.1% bovine casein, without or with 1.0% human serum albumin; design: expressed in transfected cells; conditions: for EC50: geometric mean
Chain of hGLP-1R (P43220 24-463): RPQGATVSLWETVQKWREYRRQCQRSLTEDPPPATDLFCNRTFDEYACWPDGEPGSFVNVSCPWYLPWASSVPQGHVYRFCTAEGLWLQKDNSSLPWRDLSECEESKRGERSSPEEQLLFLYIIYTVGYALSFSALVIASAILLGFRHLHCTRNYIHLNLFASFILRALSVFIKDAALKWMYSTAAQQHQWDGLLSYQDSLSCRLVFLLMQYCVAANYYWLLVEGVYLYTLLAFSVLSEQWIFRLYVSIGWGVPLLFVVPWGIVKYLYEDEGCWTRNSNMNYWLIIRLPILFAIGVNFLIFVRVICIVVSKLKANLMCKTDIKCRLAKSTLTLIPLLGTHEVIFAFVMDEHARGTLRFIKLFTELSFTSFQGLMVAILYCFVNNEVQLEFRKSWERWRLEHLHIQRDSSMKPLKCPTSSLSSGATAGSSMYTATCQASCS
Procedure, shortened: as §1

[4] = 0.1% bovine casein and 1.0% human serum albumin, 37° C., read-out: hGIPR EC50, nM (SEM, n)
[5] = HEK293, 0.1% bovine casein and 1.0% human serum albumin, 37° C., percent of maximal response to GIP(1-42)NH2, read-out: hGIPR Emax, % ± SEM
[6] = 0.1% bovine casein and 1.0% human serum albumin, 37° C., read-out: hGCGR EC50, nM (SEM, n)
[7] = cAMP, incubated at 37° C., 0.1% bovine casein (no human serum albumin), read-out: hGCGR EC50, nM (SEM, n)
[8] = 0.1% bovine casein and 1.0% human serum albumin, 37° C., read-out: hGLP-1R EC50, nM (SEM, n)
[9] = HEK293, percent of maximal response to GLP-1(7-36)NH2, 37° C., 0.1% bovine casein, arithmetic mean, read-out: hGLP-1R Emax, % ± SEM

SMILES	Emax ([1]; HEK293, read-out: hGIPR Emax, % ± SEM, 0.1% bovine casein and 1.0% human serum albumin, 37° C., percent of maximal response to GIP(1-42)NH2) [%]	EC50 ([1]; hGIPR EC50, nM (SEM, n), 0.1% bovine casein and 1.0% human serum albumin, 37° C.) [nM]	EC50 ([1]; hGIPR EC50, nM (SEM, n), cAMP, incubated at 37° C., 0.1% bovine casein (no human serum albumin)) [nM]	EC50 ([2]; hGCGR EC50, nM (SEM, n), 0.1% bovine casein and 1.0% human serum albumin, 37° C.) [nM]	EC50 ([2]; hGCGR EC50, nM (SEM, n), cAMP, incubated at 37° C., 0.1% bovine casein (no human serum albumin)) [nM]	Emax ([3]; HEK293, read-out: hGLP-1R Emax, % ± SEM, 0.1% bovine casein and 1.0% human serum albumin, 37° C., percent of maximal response to GLP-1(7-36)NH2) [%]	EC50 ([3]; hGLP-1R EC50, nM (SEM, n), 0.1% bovine casein and 1.0% human serum albumin, 37° C.) [nM]	EC50 ([3]; hGLP-1R EC50, nM (SEM, n), cAMP, incubated at 37° C., 0.1% bovine casein (no human serum albumin)) [nM]	EC50 [1, 4] [nM]	Emax [1, 5] [%]	EC50 [2, 6] [nM]	EC50 [2, 7] [nM]	EC50 [3, 8] [nM]	Emax ([3]; HEK293, 0.1% bovine casein and 1.0% human serum albumin, 37° C., percent of maximal response to GLP-1(7-36)NH2, read-out: hGLP-1R Emax, % ± SEM) [%]	Emax [3, 9] [%]	EC50 ([3]; cAMP, incubated at 37° C., 0.1% bovine casein (no human serum albumin), read-out: hGLP-1R EC50, nM (SEM, n)) [nM]	Emax ([1]; HEK293, percent of maximal response to GIP(1-42)NH2, 37° C., 0.1% bovine casein, arithmetic mean, read-out: hGIPR Emax, % ± SEM) [%]	EC50 ([1]; cAMP, incubated at 37° C., 0.1% bovine casein (no human serum albumin), read-out: hGIPR EC50, nM (SEM, n)) [nM]
CC[C@H](C)[C@H](NC(=O)[C@H](CC(C)C)NC(=O)[C@](C)(Cc1ccc(O)cc1)NC(=O)[C@H](CCCCNC(=O)COCCOCCNC(=O)COCCOCCNC(=O)CC[C@H](NC(=O)CCCCCCCCCCCCC(=O)O)C(=O)O)NC(=O)[C@@H](NC(=O)[C@H](Cc1ccccc1)NC(=O)[C@H](CCC(=O)O)NC(=O)C(C)(C)NC(=O)[C@H](CCC(N)=O)NC(=O)[C@H](C)NC(=O)[C@H](CCCCNC(=O)COCCOCCNC(=O)COCCOCCNC(=O)CC[C@H](NC(=O)CCCCCCCCCCCCC(=O)O)C(=O)O)NC(=O)[C@H](CCCN)NC(=O)[C@H](CC(=O)O)NC(=O)[C@H](CC(C)C)NC(=O)[C@](C)(CC(C)C)NC(=O)[C@@H](NC(=O)[C@H](CO)NC(=O)[C@H](Cc1ccncc1)NC(=O)[C@H](CC(=O)O)NC(=O)[C@H](CO)NC(=O)[C@@H](NC(=O)[C@](C)(Cc1ccccc1F)NC(=O)[C@@H](NC(=O)CNC(=O)[C@H](CCC(=O)O)NC(=O)C(C)(C)NC(=O)[C@@H](N)Cc1ccc(O)cc1)[C@@H](C)O)[C@@H](C)O)[C@@H](C)CC)[C@@H](C)CC)C(=O)N[C@@H](CCC(=O)O)C(=O)NCC(=O)NCC(=O)N1CCC[C@H]1C(=O)N[C@@H](CO)C(=O)N[C@@H](CO)C(=O)NCC(=O)N[C@@H](C)C(=O)N1CCC[C@H]1C(=O)N1CCC[C@H]1C(=O)N1CCC[C@H]1C(=O)N[C@@H](CO)C(N)=O [Example 16]	91.5 ± 1.01	0.625	0.0113	> 9950	> 9950	98.3 ± 0.735	9.06	0.245	–	–	–	–	–	–	–	–	–	–
CCCCCCCCCCCCCCCC(=O)N[C@@H](CCC(=O)NCCOCCOCC(=O)NCCOCCOCC(=O)NCCOCCOCC(=O)NCCCC[C@H](NC(=O)CNC(=O)CNC(=O)[C@H](CCC(=O)O)NC(=O)[C@@H](NC(=O)[C@H](CC(C)C)NC(=O)[C@](C)(Cc1ccc(O)cc1)NC(=O)[C@@H](CCC(=O)O)NC(=O)[C@@H](NC(=O)[C@H](Cc1ccccc1)NC(=O)[C@H](CCC(=O)O)NC(=O)C(C)(C)NC(=O)[C@H](CCC(N)=O)NC(=O)[C@H](C)NC(=O)[C@H](CCCCNC(=O)COCCOCCNC(=O)COCCOCCNC(=O)COCCOCCNC(=O)CC[C@H](NC(=O)CCCCCCCCCCCCCCC)C(=O)O)NC(=O)[C@H](CCCN)NC(=O)[C@H](CC(=O)O)NC(=O)[C@H](CC(C)C)NC(=O)[C@](C)(CC(C)C)NC(=O)[C@@H](NC(=O)[C@H](CO)NC(=O)[C@H](Cc1ccncc1)NC(=O)[C@H](CC(=O)O)NC(=O)[C@H](CO)NC(=O)[C@@H](NC(=O)[C@](C)(Cc1ccccc1F)NC(=O)[C@@H](NC(=O)CNC(=O)[C@H](CCC(=O)O)NC(=O)C(C)(C)NC(=O)[C@@H](N)Cc1ccc(O)cc1)[C@@H](C)O)[C@@H](C)O)[C@@H](C)CC)[C@@H](C)CC)[C@@H](C)CC)C(=O)N[C@@H](CO)C(=O)N[C@@H](CO)C(=O)NCC(=O)N[C@@H](C)C(=O)N1CCC[C@H]1C(=O)N1CCC[C@H]1C(=O)N1CCC[C@H]1C(=O)N[C@@H](CO)C(N)=O)C(=O)O [Example 31]	–	–	–	–	–	–	–	–	0.147	88.9	> 9950	> 9950	0.545	109 ± 7.91	91.3 ± 16.1	–	–	–
CCCCCCCCCCCCCCCC(=O)N[C@@H](CCC(=O)NCCOCCOCC(=O)NCCOCCOCC(=O)NCCCC[C@H](NC(=O)[C@H](CCCN)NC(=O)[C@H](CC(=O)O)NC(=O)[C@H](CC(C)C)NC(=O)[C@](C)(CC(C)C)NC(=O)[C@@H](NC(=O)[C@H](CO)NC(=O)[C@H](Cc1ccncc1)NC(=O)[C@H](CC(=O)O)NC(=O)[C@H](CO)NC(=O)[C@@H](NC(=O)[C@](C)(Cc1ccccc1F)NC(=O)[C@@H](NC(=O)CNC(=O)[C@H](CCC(=O)O)NC(=O)C(C)(C)NC(=O)[C@@H](N)Cc1ccc(O)cc1)[C@@H](C)O)[C@@H](C)O)[C@@H](C)CC)C(=O)N[C@@H](C)C(=O)N[C@@H](CCC(N)=O)C(=O)NC(C)(C)C(=O)N[C@@H](CCC(=O)O)C(=O)N[C@@H](Cc1ccccc1)C(=O)N[C@H](C(=O)N[C@H](CCC(=O)O)C(=O)N[C@@H](CCCCNC(=O)COCCOCCNC(=O)COCCOCCNC(=O)CC[C@H](NC(=O)CCCCCCCCCCCCCCC)C(=O)O)C(=O)N[C@@H](CC(C)C)C(=O)N[C@H](C(=O)N[C@@H](CCC(=O)O)C(=O)NCC(=O)NCC(=O)N1CCC[C@H]1C(=O)N[C@@H](CO)C(=O)N[C@@H](CO)C(=O)NCC(=O)N[C@@H](C)C(=O)N1CCC[C@H]1C(=O)N1CCC[C@H]1C(=O)N1CCC[C@H]1C(=O)N[C@@H](CO)C(N)=O)[C@@H](C)CC)[C@@H](C)CC)C(=O)O [Example 32]	–	–	–	–	–	–	–	–	–	98.2	> 9950	> 9950	1.73	–	119	0.0063	–	–
CC[C@H](C)[C@H](NC(=O)[C@H](CC(C)C)NC(=O)[C@](C)(Cc1ccc(O)cc1)NC(=O)[C@@H](CCC(=O)O)NC(=O)[C@@H](NC(=O)[C@H](Cc1ccccc1)NC(=O)[C@H](CCC(=O)O)NC(=O)C(C)(C)NC(=O)[C@H](CCC(N)=O)NC(=O)[C@H](C)NC(=O)[C@H](CCCCNC(=O)COCCOCCNC(=O)[C@@H](N)CCCCNC(=O)CC[C@H](NC(=O)CCCCCCCCCCCCC(=O)O)C(=O)O)NC(=O)[C@H](CCCN)NC(=O)[C@H](CC(=O)O)NC(=O)[C@H](CC(C)C)NC(=O)[C@](C)(CC(C)C)NC(=O)[C@@H](NC(=O)[C@H](CO)NC(=O)[C@H](Cc1ccncc1)NC(=O)[C@H](CC(=O)O)NC(=O)[C@H](CO)NC(=O)[C@@H](NC(=O)[C@](C)(Cc1ccccc1F)NC(=O)[C@@H](NC(=O)CNC(=O)[C@H](CCC(=O)O)NC(=O)C(C)(C)NC(=O)[C@@H](N)Cc1ccc(O)cc1)[C@@H](C)O)[C@@H](C)O)[C@@H](C)CC)[C@@H](C)CC)C(=O)N[C@@H](CCC(=O)O)C(=O)NCC(=O)NCC(=O)N[C@@H](CCCCNC(=O)COCCOCCNC(=O)[C@@H](N)CCCCNC(=O)CC[C@H](NC(=O)CCCCCCCCCCCCC(=O)O)C(=O)O)C(=O)N[C@@H](CO)C(=O)N[C@@H](CO)C(=O)NCC(=O)N[C@@H](C)C(=O)N1CCC[C@H]1C(=O)N1CCC[C@H]1C(=O)N1CCC[C@H]1C(=O)N[C@@H](CO)C(N)=O [Example 35]	–	–	–	–	–	–	–	–	0.35	91.7 ± 1.28	> 9950	> 9950	16.4	–	–	–	97 ± 2.32	0.0162
